The results in this text go back to patent publication US20040024024A1, “Aromatic sulfone hydroxamates and their use as protease inhibitors” (priority 2001, published 2004).

What all share (assay type): biochemical
For one assay, the target named is T1, Human recombinant MMP-9 (Homo sapiens, UniProt P14780).
T1 construct: made in house; host or cells: MMP-9-transfected HT1080 cells (spent media)
The assay is described as follows: In vitro MMP inhibition, IC50 determination (fluorogenic substrate I). To be noted: value outside parentheses. In a few lines: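 Reduction in fluorescence (328 nm excitation, 415 nm emission) from cleavage of 4 μM quenched peptide substrate I, measured at room temperature against inhibitor concentration, gave IC50. Enzyme: trypsin- or APMA-activated MMP-9 purified from transfected HT1080 medium; buffer 100 mM Tris, 100 mM NaCl, 10 mM CaCl2, pH 7.5.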

For a further assay, the target named is T2, Human recombinant MMP-13 (Homo sapiens, UniProt P45452).
T2 construct: made in house; host or cells: baculovirus / insect cells
Described as above. To be noted: value outside parentheses. The method, boiled down: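 Fluorescence at 415 nm (excitation 328 nm) reports Gly-Leu cleavage of 4 μM quenched methoxycoumarin peptide substrate I. Human recombinant MMP-13, activated by trypsin or APMA, was incubated at room temperature with varied inhibitor concentrations in pH 7.5 Tris/NaCl/CaCl2 buffer; IC50 derived from reduced fluorescence.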

Another assay addresses T3, Human recombinant MMP-2 (Homo sapiens, UniProt P08253).
T3 construct: made in house; host or cells: MMP-2-transfected p2AHT2 cells
T3 sequence (P08253 110-660): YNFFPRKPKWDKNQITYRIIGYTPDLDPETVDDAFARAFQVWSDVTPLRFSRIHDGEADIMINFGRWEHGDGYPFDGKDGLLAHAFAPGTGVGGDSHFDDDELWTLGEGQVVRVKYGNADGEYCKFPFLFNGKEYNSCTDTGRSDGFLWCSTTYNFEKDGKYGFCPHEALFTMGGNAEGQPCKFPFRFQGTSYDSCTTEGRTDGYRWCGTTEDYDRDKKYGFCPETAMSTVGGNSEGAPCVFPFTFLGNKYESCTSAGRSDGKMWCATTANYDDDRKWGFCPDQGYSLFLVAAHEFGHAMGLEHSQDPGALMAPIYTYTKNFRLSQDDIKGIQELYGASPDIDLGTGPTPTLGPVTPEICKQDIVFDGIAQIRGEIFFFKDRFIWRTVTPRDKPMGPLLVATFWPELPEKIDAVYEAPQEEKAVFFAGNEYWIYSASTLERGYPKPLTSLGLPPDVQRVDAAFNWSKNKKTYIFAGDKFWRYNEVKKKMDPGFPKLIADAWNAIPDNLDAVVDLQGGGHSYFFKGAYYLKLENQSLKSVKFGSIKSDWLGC
Nature of the assay: In vitro MMP inhibition, Ki determination (fluorogenic substrate II). To be noted: value in parentheses.

T1 sequence (P14780 107-707 limits assumed): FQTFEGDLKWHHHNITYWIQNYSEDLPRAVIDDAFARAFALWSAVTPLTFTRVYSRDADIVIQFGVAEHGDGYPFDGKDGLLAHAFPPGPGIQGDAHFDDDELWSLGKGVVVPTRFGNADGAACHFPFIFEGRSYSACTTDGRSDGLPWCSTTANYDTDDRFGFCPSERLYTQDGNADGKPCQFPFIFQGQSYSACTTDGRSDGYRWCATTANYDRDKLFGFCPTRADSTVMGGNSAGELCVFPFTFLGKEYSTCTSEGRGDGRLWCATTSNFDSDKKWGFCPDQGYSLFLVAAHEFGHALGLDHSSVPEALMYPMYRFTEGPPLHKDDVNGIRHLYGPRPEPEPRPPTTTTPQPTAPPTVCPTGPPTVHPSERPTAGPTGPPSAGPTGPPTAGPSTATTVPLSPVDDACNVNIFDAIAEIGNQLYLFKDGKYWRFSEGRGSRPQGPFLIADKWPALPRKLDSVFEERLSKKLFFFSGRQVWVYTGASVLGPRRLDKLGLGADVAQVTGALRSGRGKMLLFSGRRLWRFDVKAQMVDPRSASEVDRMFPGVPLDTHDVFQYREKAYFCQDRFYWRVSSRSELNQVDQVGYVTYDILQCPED

Broadly, the IC50 is the concentration that gives 50% inhibition. What is called Ki is the equilibrium dissociation constant of an inhibitor or competing ligand from its target. As for `O=C(NO)C1(S(=O)(=O)c2ccc(OCCCc3cccc(-c4ccsc4)c3)cc2)CCOCC1` [Example 632], the figures for the half-maximal inhibitory concentration (IC50) at Human recombinant MMP-9 and at Human recombinant MMP-13 were 411 nM and 1.6 nM, respectively. Also, the Ki on Human recombinant MMP-2 is 279 nM.

Turning to `O=C(NO)C1(S(=O)(=O)c2ccc(OCCCc3cccc(-c4ccoc4)c3)cc2)CCOCC1` [Example 637], the IC50 worked out at 830 nM at Human recombinant MMP-9 and 1.8 nM at Human recombinant MMP-13. The inhibition constant (Ki) at Human recombinant MMP-2 is 498 nM.
